# Assay results published in patent publication US11306078B2, “Piperidine CXCR7 receptor modulators” (IDORSIA PHARMACEUTICALS LTD., priority 2016, dated 2022).
# Molecular target: human chemokine receptor CXCR7 (Homo sapiens (Human), UniProt P25106)
# Assay: Tango CXCR7-bla U2OS beta-arrestin recruitment assay (beta-lactamase reporter, FRET), antagonism of CXCL12/SDF1-α;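 further: compounds preincubated 15 min before CXCL12 addition, then 22 h at 37 °C, FRET emission ratio read with CCF4-AM substrate after 2 h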
# Type: cell-based
# Settings: antagonistic effect on CXCR7; Tango CXCR7-bla U2OS cells, CXCL12/SDF1-α at its EC80
# human chemokine receptor CXCR7, sequence (P25106 whole entry): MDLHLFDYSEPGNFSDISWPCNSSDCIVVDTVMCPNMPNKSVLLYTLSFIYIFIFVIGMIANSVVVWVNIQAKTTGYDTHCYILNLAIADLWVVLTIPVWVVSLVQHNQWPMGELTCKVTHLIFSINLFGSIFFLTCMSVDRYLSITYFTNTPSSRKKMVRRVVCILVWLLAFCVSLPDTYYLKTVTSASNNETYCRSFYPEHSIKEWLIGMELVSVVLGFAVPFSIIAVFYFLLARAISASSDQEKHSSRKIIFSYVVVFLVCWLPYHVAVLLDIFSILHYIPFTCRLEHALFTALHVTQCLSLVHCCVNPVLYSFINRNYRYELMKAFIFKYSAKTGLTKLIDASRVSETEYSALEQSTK
row,Structure (SMILES),IC50
1,"Cc1csc(CNC(=O)[C@@H]2CN(C3CCCCC3)CC[C@H]2NC(=O)c2cc(-c3ccc(F)cc3F)on2)n1 (racemic) [Example 1.068, rac-(3R*,4R*)-1-Cyclohexyl-4-{[5-(2,4-difluoro-phenyl)-isoxazole-3-carbonyl]-amino}-piperidine-3-carboxylic acid (4-methyl-thiazol-2-ylmethyl)-amide]",512 nM
2,"CN(CCc1ccccn1)C(=O)[C@@H]1CN(C2CCCCC2)CC[C@H]1NC(=O)c1cc(-c2ccc(F)cc2F)on1 (racemic) [Example 1.075, rac-(3R*,4R*)-1-Cyclohexyl-4-{[5-(2,4-difluoro-phenyl)-isoxazole-3-carbonyl]-amino}-piperidine-3-carboxylic acid methyl-(2-pyridin-2-yl-ethyl)-amide]",44 nM
3,"CC(C)(CF)NC(=O)[C@@H]1CN(C2CCCCC2)CC[C@H]1NC(=O)c1cc(-c2ccc(F)cc2F)on1 (racemic) [Example 1.079, rac-(3R*,4R*)-1-Cyclohexyl-4-{[5-(2,4-difluoro-phenyl)-isoxazole-3-carbonyl]-amino}-piperidine-3-carboxylic acid (2-fluoro-1,1-dimethyl-ethyl)-amide]",510 nM
4,"CC(C)(CS(C)(=O)=O)NC(=O)[C@@H]1CN(C2CCCCC2)CC[C@H]1NC(=O)c1cc(-c2ccc(F)cc2F)on1 (racemic) [Example 1.081, rac-(3R*,4R*)-1-Cyclohexyl-4-{[5-(2,4-difluoro-phenyl)-isoxazole-3-carbonyl]-amino}-piperidine-3-carboxylic acid (2-methanesulfonyl-1,1-dimethyl-ethyl)-amide]",118 nM
5,"CC(C)(CO)NC(=O)[C@@H]1CN(C2CCCCC2)CC[C@H]1NC(=O)c1cc(-c2ccc(F)cc2F)on1 (racemic) [Example 1.088, rac-(3R*,4R*)-1-Cyclohexyl-4-{[5-(2,4-difluoro-phenyl)-isoxazole-3-carbonyl]-amino}-piperidine-3-carboxylic acid (2-hydroxy-1,1-dimethyl-ethyl)-amide]",244 nM
6,"CN(C)C(=O)[C@@H]1CN(C2CCCCC2)CC[C@H]1NC(=O)c1cn(-c2ccc(F)cc2F)nn1 (racemic) [Example 1.095, rac-(3R*,4R*)-1-Cyclohexyl-4-{[1-(2,4-difluoro-phenyl)-1H-[1,2,3]triazole-4-carbonyl]-amino}-piperidine-3-carboxylic acid dimethylamide]",254 nM
7,"CN(C)C(=O)[C@@H]1CN(C2CCCC2)CC[C@H]1NC(=O)c1cn(-c2ccc(F)cc2F)nn1 (racemic) [Example 1.096, rac-(3R*,4R*)-1-Cyclopentyl-4-{[1-(2,4-difluoro-phenyl)-1H-[1,2,3]triazole-4-carbonyl]-amino}-piperidine-3-carboxylic acid dimethylamide]",667 nM
8,"CN(C)C(=O)[C@@H]1CN(CC2CC2)CC[C@H]1NC(=O)c1cn(-c2ccc(F)cc2F)nn1 (racemic) [Example 1.097, rac-(3R*,4R*)-1-Cyclopropylmethyl-4-{[1-(2,4-difluoro-phenyl)-1H-[1,2,3]triazole-4-carbonyl]-amino}-piperidine-3-carboxylic acid dimethylamide]",442 nM
9,"CN(C)C(=O)[C@@H]1CN(C2CCCC2)CC[C@H]1NC(=O)c1cc(-c2c(F)cc(F)cc2F)on1 (racemic) [Example 1.099, rac-(3R*,4R*)-1-Cyclopentyl-4-{[5-(2,4,6-trifluoro-phenyl)-isoxazole-3-carbonyl]-amino}-piperidine-3-carboxylic acid dimethylamide]",131 nM
10,"CN(C)C(=O)[C@@H]1CN(C2CCCCC2)CC[C@H]1NC(=O)c1cc(-c2ccc(F)cc2F)no1 (racemic) [Example 1.102, rac-(3R*,4R*)-1-Cyclohexyl-4-{[3-(2,4-difluoro-phenyl)-isoxazole-5-carbonyl]-amino}-piperidine-3-carboxylic acid dimethylamide]",111 nM
11,"CN(C)C(=O)[C@@H]1CN(C2CCCC2)CC[C@H]1NC(=O)c1cc(-c2ccc(F)cc2F)no1 (racemic) [Example 1.103, rac-(3R*,4R*)-1-Cyclopentyl-4-{[3-(2,4-difluoro-phenyl)-isoxazole-5-carbonyl]-amino}-piperidine-3-carboxylic acid dimethylamide]",274 nM
12,"O=C(N[C@@H]1CCN(C2CCCCC2)C[C@H]1C(=O)N1CCC1)c1cn(-c2ccc(F)cc2F)nn1 (racemic) [Example 1.104, rac-1-(2,4-Difluoro-phenyl)-1H-[1,2,3]triazole-4-carboxylic acid [(3R*,4R*)-3-(azetidine-1-carbonyl)-1-cyclohexyl-piperidin-4-yl]-amide]",964 nM
13,"O=C(N[C@@H]1CCN(C2CCCCC2)C[C@H]1C(=O)N1CCC1)c1cc(-c2c(F)cc(F)cc2F)on1 (racemic) [Example 1.105, rac-5-(2,4,6-Trifluoro-phenyl)-isoxazole-3-carboxylic acid [(3R*,4R*)-3-(azetidine-1-carbonyl)-1-cyclohexyl-piperidin-4-yl]-amide]",430 nM
14,"O=C(N[C@@H]1CCN(C2CCCC2)C[C@H]1C(=O)N1CCC1)c1cc(-c2c(F)cc(F)cc2F)on1 (racemic) [Example 1.106, rac-5-(2,4,6-Trifluoro-phenyl)-isoxazole-3-carboxylic acid [(3R*,4R*)-3-(azetidine-1-carbonyl)-1-cyclopentyl-piperidin-4-yl]-amide]",248 nM
15,"O=C(N[C@@H]1CCN(CC2CC2)C[C@H]1C(=O)N1CCC1)c1cc(-c2c(F)cc(F)cc2F)on1 (racemic) [Example 1.107, rac-5-(2,4,6-Trifluoro-phenyl)-isoxazole-3-carboxylic acid [(3R*,4R*)-3-(azetidine-1-carbonyl)-1-cyclopropylmethyl-piperidin-4-yl]-amide]",520 nM
16,"COCC(C)(C)NC(=O)[C@@H]1CN(C2CCCC2)CC[C@H]1NC(=O)c1cn(-c2ccc(F)cc2F)nn1 (racemic) [Example 1.109, rac-(3R*,4R*)-1-Cyclopentyl-4-{[1-(2,4-difluoro-phenyl)-1H-[1,2,3]triazole-4-carbonyl]-amino}-piperidine-3-carboxylic acid (2-methoxy-1,1-dimethyl-ethyl)-amide]",902 nM
17,"COCC(C)(C)NC(=O)[C@@H]1CN(C2CCCCC2)CC[C@H]1NC(=O)c1cc(-c2c(F)cc(F)cc2F)on1 (racemic) [Example 1.111, rac-(3R*,4R*)-1-Cyclohexyl-4-{[5-(2,4,6-trifluoro-phenyl)-isoxazole-3-carbonyl]-amino}-piperidine-3-carboxylic acid (2-methoxy-1,1-dimethyl-ethyl)-amide]",332 nM
18,"COCC(C)(C)NC(=O)[C@@H]1CN(C2CCCC2)CC[C@H]1NC(=O)c1cc(-c2c(F)cc(F)cc2F)on1 (racemic) [Example 1.112, rac-(3R*,4R*)-1-Cyclopentyl-4-{[5-(2,4,6-trifluoro-phenyl)-isoxazole-3-carbonyl]-amino}-piperidine-3-carboxylic acid (2-methoxy-1,1-dimethyl-ethyl)-amide]",227 nM
19,"COCC(C)(C)NC(=O)[C@@H]1CN(CC2CC2)CC[C@H]1NC(=O)c1cc(-c2c(F)cc(F)cc2F)on1 (racemic) [Example 1.113, rac-(3R*,4R*)-1-Cyclopropylmethyl-4-{[5-(2,4,6-trifluoro-phenyl)-isoxazole-3-carbonyl]-amino}-piperidine-3-carboxylic acid (2-methoxy-1,1-dimethyl-ethyl)-amide]",118 nM
20,"COCC(C)(C)NC(=O)[C@@H]1CN(C2CCCCC2)CC[C@H]1NC(=O)c1cc(-c2ccc(F)cc2F)no1 (racemic) [Example 1.115, rac-(3R*,4R*)-1-Cyclohexyl-4-{[3-(2,4-difluoro-phenyl)-isoxazole-5-carbonyl]-amino}-piperidine-3-carboxylic acid (2-methoxy-1,1-dimethyl-ethyl)-amide]",566 nM
21,"COCC(C)(C)NC(=O)[C@@H]1CN(C2CCCC2)CC[C@H]1NC(=O)c1cc(-c2ccc(F)cc2F)no1 (racemic) [Example 1.116, rac-(3R*,4R*)-1-Cyclopentyl-4-{[3-(2,4-difluoro-phenyl)-isoxazole-5-carbonyl]-amino}-piperidine-3-carboxylic acid (2-methoxy-1,1-dimethyl-ethyl)-amide]",614 nM
22,"C[C@@H](NC(=O)[C@@H]1CN(C2CCCCC2)CC[C@H]1NC(=O)c1cc(-c2c(F)cc(F)cc2F)on1)c1ccccn1 (racemic) [Example 1.121, (3R*,4R*)-1-Cyclohexyl-4-{[5-(2,4,6-trifluoro-phenyl)-isoxazole-3-carbonyl]-amino}-piperidine-3-carboxylic acid ((R)-1-pyridin-2-yl-ethyl)-amide]",4 nM
23,"C[C@@H](NC(=O)[C@@H]1CN(C2CCCCC2)CC[C@H]1NC(=O)c1cc(-c2c(F)cc(F)cc2F)on1)c1cnccn1 (racemic) [Example 1.129, (3R*,4R*)-1-Cyclohexyl-4-{[5-(2,4,6-trifluoro-phenyl)-isoxazole-3-carbonyl]-amino}-piperidine-3-carboxylic acid ((R)-1-pyrazin-2-yl-ethyl)-amide]",105 nM
24,"C[C@@H](NC(=O)[C@@H]1CN(C2CCCC2)CC[C@H]1NC(=O)c1cc(-c2c(F)cc(F)cc2F)on1)C1CCC1 (racemic) [Example 1.138, (3R*,4R*)-1-Cyclopentyl-4-{[5-(2,4,6-trifluoro-phenyl)-isoxazole-3-carbonyl]-amino}-piperidine-3-carboxylic acid ((R)-1-cyclobutyl-ethyl)-amide]",816 nM
25,"O=C(N[C@@H]1CCN(C2CCCCC2)C[C@H]1C(=O)NC1(c2ccc(F)cn2)CC1)c1cn(-c2ccc(F)cc2F)nn1 (racemic) [Example 1.142, rac-(3R*,4R*)-1-Cyclohexyl-4-{[1-(2,4-difluoro-phenyl)-1H-[1,2,3]triazole-4-carbonyl]-amino}-piperidine-3-carboxylic acid [1-(5-fluoro-pyridin-2-yl)-cyclopropyl]-amide]",472 nM
26,"O=C(N[C@@H]1CCN(C2CCCCC2)C[C@H]1C(=O)NC1(c2ccc(F)cn2)CC1)c1cc(-c2c(F)cc(F)cc2F)on1 (racemic) [Example 1.143, rac-(3R*,4R*)-1-Cyclohexyl-4-{[5-(2,4,6-trifluoro-phenyl)-isoxazole-3-carbonyl]-amino}-piperidine-3-carboxylic acid [1-(5-fluoro-pyridin-2-yl)-cyclopropyl]-amide]",719 nM
